{
  "source": "patent US12077586B2",
  "about": "“Bispecific antibodies for use in the treatment of hematological malignancies” (LAVA THERAPEUTICS N.V., priority 2018, dated 2024)",
  "key": {"[1]": {"tested_on": "Jeko-1 cells", "assay": "Cytotoxicity assay with Vγ9Vδ2-T cell lines, Jeko-1 target cells", "assay_type": "cell-based, human", "details": "2 hours pretreatment (50 μM pamidronate or 25 μM mevastatin), 1:2; for 1D7-5C8-induced lysis of pretreated Jeko-1 cells: 100 nM 1D7-5C8, 6 hours; for Vγ9Vδ2-T cell-mediated lysis of pretreated Jeko-1 cells: no bispecific antibody, 6 hours", "method": "Target cells were then cocultured overnight with Vγ9Vδ2-T cell lines in a 1:1 ratio unless otherwise indicated. Viability was measured using Mitotracker Orange (25-minute incubation at 37° C., M7510) and To-pro-3 (10-minute incubation at room temperature; T3605, both Thermo Fisher Scientific).\nIf indicated, target cells were pretreated with 25 μM mevastatin (M2537, Sigma-Aldrich), 50 μM aminobisphosphonates (pamidronate, #12J08RD, TEVA Pharmachemie, Haarlem, the Netherlands) or medium control for 2 hours.\nIf indicated, cells were cultured with the indicated concentrations of all-trans retinoic acid (ATRA; R2625, Sigma-Aldrich) for 48 hours unless otherwise indicated. ATRA was washed away prior to cytotoxicity assays.\nIf indicated, target cells were pre-incubated with 5 μg/mL anti-CD1d mAb (clone 51.1, 350304, Biolegend, San Diego, CA, USA) and/or 10 μg/mL anti-CD277 mAb (clone 103.2, Creative Biolabs, Shirley, NY, USA) for 10 minutes."}, "[2]": {"tested_on": "CLL patient-derived Vγ9Vδ2-T cells", "assay": "Activation, cytokine and degranulation assay with autologous CLL patient-derived Vγ9Vδ2-T cells", "assay_type": "cell-based, human", "details": "overnight culture of CLL PBMC; 1D7-5C8 50 nM", "from_the_text": "(A-C) Activation of and cytokine production and degranulation by patient-derived Vγ9Vδ2-T cells. […] (D) Lysis of primary CLL cells by autologous Vγ9Vδ2-T cells. […] Live CLL cells were quantified by flow cytometry using counting beads (n=5). (E) Expansion of patient-derived Vγ9Vδ2-T cells. […] Percentage Vγ9Vδ2-T cells after 1 week (n=8). Data are presented as mean and SD. *P<0.05, **P<0.01, ***P<0.001. (A-D: one-way ANOVA followed by Dunnett's post hoc test compared to medium control; E: paired t-test)."}, "[3]": {"target": "T1, sulfatide-loaded CD1d tetramers (Homo sapiens, UniProt P15813)", "T1 construct": "made in house", "T1 sequence (P15813 20-301 limits assumed)": "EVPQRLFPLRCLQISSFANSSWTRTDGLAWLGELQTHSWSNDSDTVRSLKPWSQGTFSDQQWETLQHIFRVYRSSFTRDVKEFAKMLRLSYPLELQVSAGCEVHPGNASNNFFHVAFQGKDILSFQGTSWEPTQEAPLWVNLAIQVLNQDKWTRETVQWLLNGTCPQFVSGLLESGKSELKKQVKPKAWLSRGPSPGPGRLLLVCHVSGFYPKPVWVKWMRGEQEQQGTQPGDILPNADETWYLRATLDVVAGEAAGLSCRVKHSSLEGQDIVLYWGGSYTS", "T1 sequence (P61769 21-119 partner)": "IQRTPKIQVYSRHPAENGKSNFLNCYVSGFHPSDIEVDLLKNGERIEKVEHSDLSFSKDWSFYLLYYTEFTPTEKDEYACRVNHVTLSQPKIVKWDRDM", "assay": "CD1d-tetramer binding on Jurkat-Vδ1 cells", "details": "ratio VHH:CD1d of ~4:1; tetramer 2 μg/ml", "method": "(§1) FIG. 2. Vδ1-sulf-CD1d interaction is prevented by anti-CD1d VHH 1D12 and reduced by 1D22. Endogenous or sulfatide loaded CD1d-PE tetramers were incubated with either PBS (control), 1D12 or 1D22 (4:1VHH:CD1d ratio) after which tetramers were used to stain Jurkat-Vδ1 cells (final concentration tetramer 2 μg/ml) in combination with CD3-APC. Tetramer binding is prevented by 1D12 and reduced by 1D22 (A). C1R-CD1d cells were incubated with DMSO controls or sulfatide (25 μg/ml) after which medium or anti-CD1d VHH were added at 1000 or 100 nM and incubated for 30 min. Next Jurkat-Vδ1 cells were added and the co-culture was incubated for an additional 24 h after which CD69 expression was determined by flow cytometry (B). N=3.\nTo evaluate the effect of 1D12 and 1D22 on CD1d-tetramer binding on Jurkat-Vδ1 cells, endogenous or sulfatide-loaded CD1d-PE tetramers were incubated with either PBS (control), 1D12 or 1D22 (ratio VHH:CD1d of ˜4:1) for 30 min at room temperature after which tetramers were added to Jurkat-Vδ1 cells (final concentration tetramer 2 μg/ml) in combination with CD3-APC and incubated for 45 min at 4 degrees Celsius. Data was analyzed by flow cytometry."}, "[4]": {"tested_on": "iNKT cells", "assay": "Modulation of iNKT cell activation (co-culture with Hela-CD1d cells)", "assay_type": "cell-based, human", "details": "24 hr co-culture with Hela-CD1d pulsed with vehicle or α-GalCer; 1D12 100 nM, 1D22 1000 nM", "from_the_text": "FIG. 1. […] Representative dot-plots illustrating marked activation by 1D12 (A) or inhibition by 1D22 (B) of iNKT cells as depicted by CD25 expression, in addition to a marked increase (by 1D12) or decrease (by 1D22) in iNKT cell IFN-γ production (C and D). Data represent mean+SD of 3-4 individual experiments with iNKT obtained from different donors, **P<0.01, ***P<0.001, calculated with a one-way analysis of variance with Turkey's post hoc test.\nTo evaluate the capacity of 1D12 and 1D22 to stimulate or inhibit iNKT cell activation, 5×10^4 Hela-CD1d cells were seeded per well in a 96-well tissue culture plate and pulsed overnight with vehicle control (DMSO 0.01%) or 100 ng/ml α-GalCer. Cells were then washed with PBS and incubated with medium, or the anti-CD1d specific VHH for 1 hr at the indicated concentrations. Subsequently, 5×10^4 pure and resting iNKT were added to each well. After 24 hr, culture supernatants were analyzed for (induction or inhibition of) cytokine production by CBA (BD Biosciences) whereas iNKT cells were harvested and analyzed for CD25 expression by flow cytometry."}, "[5]": {"tested_on": "Jurkat-Vδ1 cells", "assay": "Modulation of Jurkat-Vδ1 cell activation (C1R-CD1d co-culture, CD69)", "assay_type": "cell-based, human", "details": "C1R-CD1d pulsed with 25 μg/ml sulfatide; VHH 100 nM or 1000 nM; 24 hr", "method": "as §1\niNKT cells are known to dock over the extreme F′ pocket of CD1d which contrasts with sulfatide-CD1d restricted Vδ1-T cells that dock more towards the A′ pocket. We therefore evaluated the effect of 1D12 and 1D22 on sulfatide-CD1d restricted Vδ1-T cells. To evaluate the effect of 1D12 and 1D22 on Jurkat-Vδ1 cell activation, 1×10^5 C1R-CD1d cells were seeded per well in a 96-well tissue culture plate and pulsed for 2 hr with vehicle control (DMSO 0.05%) or 25 μg/ml sulfatide. […] After 24 hr Jurkat-Vδ1 cells were harvested and analysed for CD69 expression by flow cytometry. […]"}, "[6]": {"target": "T2, CD1d (Homo sapiens, UniProt P15813)", "T2 construct": "expressed in transfected cells; host or cells: MM.1s (human multiple myeloma cell line) stably transduced with CD1d", "T2 sequence (P15813 20-335)": "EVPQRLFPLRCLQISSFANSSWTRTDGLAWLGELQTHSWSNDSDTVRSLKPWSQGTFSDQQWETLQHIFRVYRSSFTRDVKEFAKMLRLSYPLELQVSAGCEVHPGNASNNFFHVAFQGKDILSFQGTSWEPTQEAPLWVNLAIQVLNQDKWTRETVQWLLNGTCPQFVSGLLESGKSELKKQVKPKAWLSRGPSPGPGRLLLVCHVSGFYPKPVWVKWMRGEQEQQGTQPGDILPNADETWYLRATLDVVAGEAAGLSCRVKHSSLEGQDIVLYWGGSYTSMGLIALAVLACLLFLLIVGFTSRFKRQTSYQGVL", "T2 sequence (P61769 21-119 partner)": "as the sequence (P61769 21-119 partner) above", "details": "previously characterized; cited from earlier work"}},
  "data": [
    {"molecule": "CC[C@H](C)C(=O)O[C@H]1CCC=C2C=C[C@H](C)[C@H](CC[C@@H]3C[C@@H](O)CC(=O)O3)[C@H]21", "note": "[mevastatin, reference compound]", "values": [
      {"measurement": "1D7-5C8-induced lysis of pretreated Jeko-1 cells", "setting": "[1]", "value": "decreased bispecific antibody 1D7-5C8-induced lysis"},
      {"measurement": "Vγ9Vδ2-T cell-mediated lysis of pretreated Jeko-1 cells", "setting": "[1]", "value": "led to a reduction in lysis"}
    ]},
    {"molecule": "NCCC(O)(P(=O)(O)O)P(=O)(O)O", "note": "[pamidronate, reference compound]", "values": [
      {"measurement": "Upregulation of activation marker CD25 on patient Vγ9Vδ2-T cells", "setting": "[2]", "value": 20.5, "unit": "fold"},
      {"measurement": "1D7-5C8-induced lysis of pretreated Jeko-1 cells", "setting": "[1]", "value": "led to an increase in bispecific antibody 1D7-5C8-induced lysis of Jeko-1 cells"},
      {"measurement": "Vγ9Vδ2-T cell-mediated lysis of pretreated Jeko-1 cells", "setting": "[1]", "value": "more sensitive to Vγ9Vδ2-T cell-mediated cytotoxicity"}
    ]},
    {"molecule": "1D22: anti-CD1d VHH, SEQ ID NO: 84 (protein, antibody sequence) VHH: QVQLVESGGGLVQAGGSLRLSCAASGSIFSINAMGAIRWSGESPYYADSVKGVISSSGSTNYADSVKGRFTISRDNAKNTAYLQMNSLKVEDTAVYYCAAHVAGFDEYNYWGQGTQVTVSS", "values": [
      {"measurement": "Binding of sulfatide-loaded CD1d tetramers to Jurkat-Vδ1 cells", "setting": "[3]", "value": "only a limited impact"},
      {"measurement": "iNKT cell activation (CD25 expression) and cytokine production", "setting": "[4]", "value": "completely blocked iNKT cell activation and cytokine production"},
      {"measurement": "Jurkat-Vδ1 cell activation (CD69 expression)", "setting": "[5]", "value": "only a limited impact on expression of the activation marker CD69"}
    ]},
    {"molecule": "1D7: CD1d-specific VHH, SEQ ID NO: 70 (protein, antibody sequence) VHH: EVQLVESGGGLVQAGGSLRLSCAASVSSFSSYTMGTIRTGGSTNYADSVKGGIRWDDENPYYADSVKGRFTISRDNAKNTLYLQMNSLKPEDTANYYCAARLVPPGIPFERTLENMRYWGKGTLVTVSS", "values": [
      {"measurement": "Affinity for CD1d", "setting": "[6]", "value": "high affinity for CD1d"}
    ]}
  ]
}
